[invAb] = inverted abasic unit; d = 2'-deoxy (DNA); m = 2'-O-methyl; r = 2'-OH (RNA); f = 2'-fluoro

One data set deals with TSLP mRNA. Briefly: Initial screening: TSLP mRNA knock-down by RT-PCR (Taqman) after RNAiMax transfection of NHLF cells. The format is cell-based. Particulars: 10 nM siNA, human NHLF cells, 24 hrs post-transfection, relative to non-targeting control, normalized to GAPDH; mean ± s.d. from 2 experiments. As for the experimental part: (§1) All cells were obtained from ATCC (Manassas, Va.) unless otherwise indicated. Cells were grown and transfected under standard conditions, which are detailed below for each cell line.
NHLF (human; Lonza cat# CC-2512): Cells were cultured at 37° C. in the presence of 5% CO2 and grown Fibroblast Basal Medium (Lonza cat# CC-3β2) supplemented growth factors (provided with the kit) and 100 μg/mL of streptomycin and 100 U/mL penicillin.
(§2) All transfections were performed using RNAiMax (Invitrogen Cat# 13778-150) as per the manufacturer's instructions.
(§3) Both human and murine cell lines were transfected in the similar fashion. Cells were plated in all wells of a tissue-culture treated, 96-well plate at a final count of 5,000 cells/well in […], of appropriate culture media. Cells were cultured for 24 hours after plating at 37° C. in the presence of 5% CO2.
(§4) After 24 hours, complexes containing siNA and RNAiMax were created as follows: A solution of RNAiMax diluted 33-fold in OPTI-MEM was prepared. In parallel, solutions of the siNAs for testing were prepared to a final concentration of 120 nM in OPTI-MEM. After incubation of RNAiMax/OPTI-MEM solution at room temperature for 5 min, an equal volume of the siNA solution and the RNAiMax solution were added together for each of the siNAs.
(§5) This solution was incubated at room temperature for 20 minutes. After incubation, 20 uL of the solution was added to each of the relevant wells.
(§6) The final concentration of siNA in each well was 10 nM and the final volume of RNAiMax in each well was 0.3 ul.
(§7) The time of incubation with the RNAiMax-siNA complexes was 24 hours, unless otherwise indicated. There was no change in media between the transfection and harvesting of the cells unless otherwise indicated.
(§8) RNA was extracted from a 96-well plate using the TaqMan® Gene Expression Cells-to-CT™ Kit (Cat# 4399002) with a modified protocol. Briefly, a 60 uL (1 plate) or 110 uL (2 plates) of the Lysis Solution with DNase I was dispensed into each well of the Lysis Buffer Plate (twin.tec full skirt plate). The lysis buffer and stop plates were stored at 4° C. until the cells were washed.
(§9) The plate was spun at 1100 rpm for 5 minutes. The culture medium was aspirated and discarded from the wells of the culture plate. The lysis was performed automatically using a BioMek FX instrument and method. After the Biomek method was completed, the lysis plate was incubated for 2 min. at room temperature. The lysis plate can be stored for 2 hours at 4° C., or at −20° C. or −80° C. for two months.
(§10) Each well of the reverse transcription plate required 10 uL of 2× reverse transcriptase Buffer, luL of 20× reverse transcription enzyme and 2 uL of nuclease-free water. The reverse transcription master mix was prepared by mixing 2× reverse transcription buffer, 20× reverse transcription enzyme mix, and nuclease-free water. 13 uL of the reverse transcription master mix was dispensed into each well of the reverse transcription plate (semi-skirted). A separate reverse transcription plate was prepared for each cell plate. The plate was loaded onto a Biomek NX or Biomek FX Dual-96 and the Biomek method was run. The program is programmed to automatically added 7 uL of lysate from the cell lysis procedure described above into each well of the reverse transcription plate. The plate is sealed and spun on a centrifuge (1000 rpm for 30 seconds) to settle the contents to the bottom of the reverse transcription plate. The plate is placed in a thermocycler at 37° C. for 60 min, 95° C. for 5 min, and 4° C. until the plate is removed from the thermocycler. Upon removal, if not used immediately, the plate was frozen at −20° C.
A series of probes and primers were used to detect the various mRNA transcripts of the genes of TSLP, IL-8 and GAPDH in human cell lines. All the Taqman probes and primers for the experiments here-in described were supplied as pre-validated sets by Applied Biosystems, Inc. (see Table 2). […]

In a further data set the test system is mTSLP mRNA. Nature of the data set: Initial screening: mouse TSLP mRNA knock-down by RT-PCR (Taqman) after RNAiMax transfection of NIH 3T3 cells. Particulars: 10 nM siNA, 24 hrs post-transfection, mean ± s.d., summary from 2 screens. The format is cell-based. On the procedure:
as §1
NIH 3T3 (murine; ATCC cat#CRL-1658): Cells were cultured at 37° C. in the presence of 5% CO2 and grown in Dulbecco's modified Eagle's medium (DMEM) with 4 mM L-glutamine adjusted to contain 1.5 g/L sodium bicarbonate and 4.5 g/L glucose and supplemented with fetal bovine serum at a final concentration of 10% and 100 μg/mL of streptomycin and 100 U/mL penicillin.
as §2, §3, §4, §5, §6, §7, §8, §9, §10
A series of probes and primers were used to detect the various mRNA transcripts of the genes of TSLP, IL-8 and GAPDH in human cell lines. […]

As for “25442-DC: siNA duplex: sense B GGcAAGAGAuuGcAucAuA TTB (SEQ ID NO: 67), antisense UAUGAuGcAAucucuuGccUU (SEQ ID NO: 68) (sense GGCAAGAGAUUGCAUCAUATT; antisense UAUGAUGCAAUCUCUUGCCUU; sense: DNA at AGT, 2'-fluoro at CU, [invAb] at 5' end, 3' end, backbone not given here; antisense: sugars from the 5' end rrrmmfmfmmffffffmffmm, backbone not given here)”, the “% KD TSLP” value with TSLP mRNA was 12 ± 27^ %. Besides, in the data set with mTSLP mRNA, the “% KD mTSLP NIH3T3” value is recorded as −70.9 ± 6.4%.
The like results for “25433-DC: siNA duplex: sense B cGcucGccAAAGAAAuGuu TTB (SEQ ID NO: 49), antisense AACAuuucuuuGGcGAGcGUU (SEQ ID NO: 50) (sense CGCUCGCCAAAGAAAUGUUTT; antisense AACAUUUCUUUGGCGAGCGUU; sense: DNA at AGT, 2'-fluoro at CU, [invAb] at 5' end, 3' end, backbone not given here; antisense: sugars from the 5' end rrrmfffffffmmfmmmfmmm, backbone not given here)” were, in that order, 36 ± 25^ % and 7.5 ± 3.3%.
The like results for “25457-DC: siNA duplex: sense B cucAGGAAAuGGcAcAAGA TTB (SEQ ID NO: 97), antisense UCUuGuGccAuuuccuGAGUU (SEQ ID NO: 98) (sense CUCAGGAAAUGGCACAAGATT; antisense UCUUGUGCCAUUUCCUGAGUU; sense: DNA at AGT, 2'-fluoro at CU, [invAb] at 5' end, 3' end, backbone not given here; antisense: sugars from the 5' end rrrfmfmffmffffffmmmmm, backbone not given here)” were, in that order, 32 ± 2% and 81.5 ± 3.7%.
Regarding “25430-DC: siNA duplex: sense B cccuGAAAAAGGAAAAAuA TTB (SEQ ID NO: 43), antisense UAUuuuuccuuuuucAGGGUU (SEQ ID NO: 44) (sense CCCUGAAAAAGGAAAAAUATT; antisense UAUUUUUCCUUUUUCAGGGUU; inverted abasic caps, TT overhang, chemistry not fully specified)”, the “% KD TSLP” value with TSLP mRNA is 89 ± 4.5%. Further, in the data set on mTSLP mRNA, the “% KD mTSLP NIH3T3” value came out at 30.4 ± 9.9%.
The like results for “25456-DC: siNA duplex: sense B uccuGAAAAucGAGuAuuA TTB (SEQ ID NO: 95), antisense UAAuAcucGAuuuucAGGAUU (SEQ ID NO: 96) (sense UCCUGAAAAUCGAGUAUUATT; antisense UAAUACUCGAUUUUCAGGAUU; sense: DNA at AGT, 2'-fluoro at CU, [invAb] at 5' end, 3' end, backbone not given here; antisense: sugars from the 5' end rrrfmfffmmfffffmmmmmm, backbone not given here)” were, in that order, 23 ± 1.1% and 53.3 ± 0.3%.
Consider “25447-DC: siNA duplex: sense B uuuGuGAAcAcuuuuGAAA TTB (SEQ ID NO: 77), antisense UUUcAAAAGuGuucAcAAAUU (SEQ ID NO: 78) (sense UUUGUGAACACUUUUGAAATT; antisense UUUCAAAAGUGUUCACAAAUU; sense: DNA at AGT, 2'-fluoro at CU, [invAb] at 5' end, 3' end, backbone not given here; antisense: sugars from the 5' end rrrfmmmmmfmfffmfmmmmm, backbone not given here)”, for which the “% KD TSLP” value in the data set with TSLP mRNA is 84 ± 4.6%. Also, the “% KD mTSLP NIH3T3” value in the data set on mTSLP mRNA amounted to 18.5 ± 3.8%.
The like results for “25463-DC: siNA duplex: sense B cGAGuAuuAuAcucucAAu TTB (SEQ ID NO: 109), antisense AUUGAGAGuAuAAuAcucGUU (SEQ ID NO: 110) (sense CGAGUAUUAUACUCUCAAUTT; antisense AUUGAGAGUAUAAUACUCGUU; sense: DNA at AGT, 2'-fluoro at CU, [invAb] at 5' end, 3' end, backbone not given here; antisense: sugars from the 5' end rrrmmmmmfmfmmfmfffmmm, backbone not given here)” were, in that order, 19 ± 33.3% and 41.5 ± 1.4%.
The corresponding values for “25444-DC: siNA duplex: sense B GuGucAcAAuuAcAAGGAu TTB (SEQ ID NO: 71), antisense AUCcuuGuAAuuGuGAcAcUU (SEQ ID NO: 72) (sense GUGUCACAAUUACAAGGAUTT; antisense AUCCUUGUAAUUGUGACACUU; sense: DNA at AGT, 2'-fluoro at CU, [invAb] at 5' end, 3' end, backbone not given here; antisense: sugars from the 5' end rrrfffmfmmffmfmmfmfmm, backbone not given here)” are 80 ± 5.3% and 19.5 ± 19%.
The corresponding values for “25458-DC: siNA duplex: sense B GuAGAAAAAAAAAuuAAAA TTB (SEQ ID NO: 99), antisense UUUuAAuuuuuuuuucuAcUU (SEQ ID NO: 100) (sense GUAGAAAAAAAAAUUAAAATT; antisense UUUUAAUUUUUUUUUCUACUU; sense: sugars from the 5' end d1 f1 d11 f2 d6, [invAb] at 5' end, 3' end, backbone not given here; antisense: sugars from the 5' end rrrfmmfffffffffffmfmm, backbone not given here)” are 45 ± 9.9% and 21.6 ± 0.5%.
Consider “25437-DC: siNA duplex: sense B cAGGGAGAcuccAAcuuAA TTB (SEQ ID NO: 57), antisense UUAAGuuGGAGucucccuGUU (SEQ ID NO: 58) (sense CAGGGAGACUCCAACUUAATT; antisense UUAAGUUGGAGUCUCCCUGUU; sense: sugars from the 5' end frddddddffffddfffdddd, [invAb] at 5' end, 3' end, backbone not given here; antisense: sugars from the 5' end rrrmmffmmmmfffffffmmm, backbone not given here)”, for which the “% KD TSLP” value with TSLP mRNA is recorded as −51 ± 36.2%. Moreover, the “% KD mTSLP NIH3T3” value in the data set with mTSLP mRNA is listed as 33.8 ± 4.2%.
The like results for “25459-DC: siNA duplex: sense B uGcccAGGcuAcccuGAAA TTB (SEQ ID NO: 101), antisense UUUcAGGGuAGccuGGGcAUU (SEQ ID NO: 102) (sense UGCCCAGGCUACCCUGAAATT; antisense UUUCAGGGUAGCCUGGGCAUU; sense: DNA at AGT, 2'-fluoro at CU, [invAb] at 5' end, 3' end, backbone not given here; antisense: sugars from the 5' end rrrfmmmmfmmfffmmmfmmm, backbone not given here)” were, in that order, −6 ± 27^ % and 15.7 ± 1.6%.

Values taken from patent US20120022143A1, “RNA Interference Mediated Inhibition of the Thymic Stromal Lymphopoietin (TSLP) Gene Expression Using Short Interfering Nucliec Acid (siNA)” (Merck Sharp & Dohme Corp, priority 2009, published 2012).
